pIC50: −log10 of the molar value.
Key:
[1] = tested on: UMUC9 cells; experiment: Proliferation UMUC9 H2B-GFP assay (Incucyte); assay type: cell-based; conditions: 7 days of treatment; for Emax: UM-UC-9, 168 h, % efficacy (span); for pIC50: UM-UC-9, relative IC50, Day 1 subtracted, percentage of DMSO control
Protocol: Proliferation UMUC9 H2B-GFP assay
Instrument: Incucyte® (Sartorius).
Description: Incucyte® Proliferation Assay measures cell proliferation based on nuclei count using live-cell time-lapse imaging. […] Measurements were performed on the day of treatment (Day 1 reading) and after 7 days of treatment (Day 8 reading). Green fluorescence in cell nuclei is measured using the instrument (Image Channels: Phase, Green; Acquisition time: 300 ms; Magnification: 4×).
Analysis: Selected metrics for analysis: Phase Object Confluence (Percent), Nuclei Count (1/Well) and Total Nuclei Area (μm^2/Well). Day 1 measurements were subtracted from each Day 8 measurement and expressed as percentage of the vehicle (DMSO) control. Percentage proliferation values were then plotted against compound concentration using GraphPad PRISM software. The Sigmoidal 4PL X is log (concentration) model of […] was used. Relative IC50 values and % efficacy (span) is reported below.

[2] = biological target: T1, PPARG receptors (Homo sapiens, UniProt P37231); experiment: RT-112-FABP4-NLuc Reporter Gene Assay (inverse agonism); assay type: cell-based; conditions: incubated over night; for pIC50: PPARG_RT-112_FABP4_NLuc_inverse agonist IC50 - [mol/l], bladder cancer cell line RT-112/84, NanoLuc in FABP4 3′ UTR, 50 μM to 0.03 nM; for Emax: RT112/84, read-out: PPARG_RT-112_FABP4_NLuc_inverse agonist Efficacy - [%], bladder cancer cell line RT-112/84, NanoLuc in FABP4 3′ UTR
T1 construct: leading to PPARG dependent expression of the NanoLuc@ Luciferase; endogenous in cells
T1 sequence (P37231 1-505): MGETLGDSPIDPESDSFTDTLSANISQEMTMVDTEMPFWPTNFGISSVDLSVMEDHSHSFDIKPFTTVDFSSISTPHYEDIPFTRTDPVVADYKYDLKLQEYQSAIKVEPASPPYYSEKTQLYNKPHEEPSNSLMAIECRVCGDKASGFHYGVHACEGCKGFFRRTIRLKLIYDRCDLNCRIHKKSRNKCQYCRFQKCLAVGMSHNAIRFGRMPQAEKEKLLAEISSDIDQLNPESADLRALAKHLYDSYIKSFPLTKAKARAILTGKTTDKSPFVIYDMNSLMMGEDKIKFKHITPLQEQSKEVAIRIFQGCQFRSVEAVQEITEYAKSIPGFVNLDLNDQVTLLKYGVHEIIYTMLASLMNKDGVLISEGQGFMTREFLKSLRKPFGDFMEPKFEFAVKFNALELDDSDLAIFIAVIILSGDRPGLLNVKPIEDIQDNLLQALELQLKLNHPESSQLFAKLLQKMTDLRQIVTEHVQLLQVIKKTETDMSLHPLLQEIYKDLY
Protocol: Inverse agonists reduce the basal expression of the Luciferase resulting in a decrease of the Luciferase signal after addition of substrate and cell lysis. To exclude toxic effects of the compounds a parallel measurement of cell viability was performed based on the CellTiter Glo Assay (Promega).
On the next day 10 μl of test compounds dissolved in DMEM/F12 2% FBS and 0,01% BSA are placed in the wells of the microtiter plates. Final concentrations ranged from 50 μM to 0.03 nM. […] On the next day the NanoLuc Luciferase activity was measured by addition of 40 μl of NanoLuc substrate and lysis buffer (Promega, Madison, Wisconsin) diluted in 2 mM Ca-tyrode buffer (20 mM HEPES, 130 mM NaCl, 5 mM KCl, 5 mM NaHCO3, 2 mM MgCl2, pH 7,4). The resulting light signal was measured for 60 seconds in a luminometer. Every sample was tested in quadruples and mean values were used to calculate the IC50 values and efficacies of the compounds.

With `O=C(NCc1ccc(F)cc1)c1cc(C(=O)Nc2ccc3oc(-c4cccc(Cl)c4)nc3c2)c(Cl)cc1F` [Example 22, 4-chloro-N^3-[2-(3-chlorophenyl)-1,3-benzoxazol-5-yl]-6-fluoro-N^1-[(4-fluorophenyl)methyl]benzene-1,3-dicarboxamide] the Emax [1] was 86.6%, the pIC50 [1] was 7.67 and the pIC50 [2] was 8.89. It also gave an Emax [2] of 106%.
Work on `Cc1ccccc1CNC(=O)c1cc(Cl)c(Cl)c(C(=O)Nc2ccccc2)c1` [Example 17, 4,5-dichloro-N^1-[(2-methylphenyl)methyl]-N^3-phenylbenzene-1,3-dicarboxamide] yielded an Emax [1] of 28.3%, a pIC50 [1] of 8.82 and a pIC50 [2] of 8.89. For the same compound, the Emax [2] was 71%.
For `O=C(NCc1ccccc1)c1cc(Cl)c(Cl)c(C(=O)Nc2ccc(C3COC3)cc2)c1F` [Example 33, N^1-benzyl-4,5-dichloro-2-fluoro-N3-[4-(oxetan-3-yl)phenyl]benzene-1,3-dicarboxamide], the Emax [1] was 59.8%, the pIC50 [1] was 8.31 and the pIC50 [2] was 8.98. For the same compound, the Emax [2] was 94%.
Compound `Cc1cc(OC(F)F)ccc1NC(=O)c1cc(C(=O)NCc2ccc(F)c(F)c2)cc(Cl)c1Cl` [Example 7, 4,5-dichloro-N^3-[4-(difluoromethoxy)-2-methylphenyl]-N^1-[(3,4-difluorophenyl)methyl]benzene-1,3-dicarboxamide] has an Emax [1] of 64.9%, a pIC50 [1] of 8.04 and a pIC50 [2] of 8.85. For the same compound, the Emax [2] was 102%.
`Cc1cccc(-c2nc3cc(NC(=O)c4cc(C(=O)NCc5ccc(F)c(F)c5)c(F)c(C)c4Cl)ccc3o2)c1` [Example 20, 4-chloro-N^1-[(3,4-difluorophenyl)methyl]-6-fluoro-5-methyl-N^3-[2-(3-methylphenyl)-1,3-benzoxazol-5-yl]benzene-1,3-dicarboxamide] was tested, and the Emax [1] was 69.6%, the pIC50 [1] was 8.23 and the pIC50 [2] was 9.34. The Emax [2] was 114%.
For `Cc1ccccc1NC(=O)c1cc(C(=O)NCc2ccccc2)c(F)cc1Cl` [Example 25, N1-benzyl-4-chloro-6-fluoro-N^3-(2-methylphenyl)benzene-1,3-dicarboxamide], the pIC50 [1] was under 5.22, the pIC50 [2] was 7.40 and the Emax [2] was 99.3%.

— patent US20240150277A1, “Covalent PPARG inverse-agonists” (Bayer Aktiengesellschaft, priority 2022, published 2024)
